Source: article PMC4719150 (Biochemistry, 2015)
Where two headings read alike, the source gives them in different places. Numbered stars: 1 amine (or outer) side, 2 acyl side, 3 side chain; on linkers, the order of the positions; unused ones are H or OH. Bridge positions count the residues as written; N and C are the ends. Square brackets hold non-standard residues; d marks the D form. Peptide text beside a SMILES is read from it. I, II: the chains in the order shown. Actinocin(9to1) = Cc1c2oc3c(C)ccc(C(=O)[*:1])c3nc-2c(C(=O)[*:2])c(N)c1=O; NMeV = CN[C@H](C(=O)O)C(C)C; Sar = CNCC(=O)O

Experiments:
[1] = system: recRSV-L19FD489E-fireSMASh; test: Peak progeny virus titers after incubation with ASV; format: cell-based, respiratory syncytial virus; conditions: 3 μM ASV versus vehicle
[2] = system: fireSMASh (firefly luciferase fused to SMASh tag); test: Firefly luciferase activity after virus growth in the presence of ASV; format: cell-based; conditions: growth of recRSV-L19FD489E-fireSMASh in the presence of 3 μM ASV; 44 hours post-infection
recIAV WSN-NanoLuc [3] = test: microbe, parasite or virus in culture; format: cell-based; conditions: Influenza A virus, BEAS-2B, 40 h, read-out: % Inhibition (anti-IAV)
in vitro = conditions: human
[4] = system: recRSV A2-L19FD489E-fireSMASh; conditions: for EC50: read-out: EC50 RSV A2-L19FD489E-fireSMASh
recIAV WSN-NanoLuc [5] = conditions: for EC50: read-out: EC50 IAV WSN-nanoLuc
recRSV A2-L19F-renilla = test: microbe, parasite or virus in culture; format: cell-based; conditions: human respiratory syncytial virus, BEAS-2B, read-out: EC50 RSV A2-L19F-renilla
recIAV WSN-NanoLuc [6] = test: microbe, parasite or virus in culture; conditions: Influenza A virus, BEAS-2B, read-out: EC50 IAV WSN-nanoLuc
BEAS-2B cells = conditions: uninfected BEAS-2B cells, highest concentration assessed 10 μM, tox = less than 50% cell viability after 44 hours at ≤10 μM; for CC50: read-out: CC50 (PrestoBlue cell viability)

C=C[C@@H]1C[C@]1(NC(=O)[C@@H]1C[C@@H](Oc2ncc(OC)c3ccc(Cl)cc23)CN1C(=O)[C@@H](NC(=O)OC(C)(C)C)C(C)(C)C)C(=O)NS(=O)(=O)C1CC1 [ASV, Asunaprevir]
effect on progeny virus titers [1]: no effect | reduction of firefly luciferase activity [2]: approximately 90%

Cc1c2oc3c(C)ccc(C(=O)N[C@@H]4C(=O)N[C@H](C(C)C)C(=O)N5CCC[C@H]5C(=O)N(C)CC(=O)N(C)[C@@H](C(C)C)C(=O)O[C@@H]4C)c3nc-2c(C(=O)N[C@@H]2C(=O)N[C@H](C(C)C)C(=O)N3CCC[C@H]3C(=O)N(C)CC(=O)N(C)[C@@H](C(C)C)C(=O)O[C@@H]2C)c(N)c1=O [Actinomycin D] (I: T[dV]P[Sar][NMeV] / II: T[dV]P[Sar][NMeV]; ester I:1-I:C, II:1-II:C; linker I:N-II:N via Actinocin(9to1))
inhibition at 5 µM (recIAV WSN-NanoLuc [3]): 104 ± 1.5%

Nc1nc(N)c2nc(CNc3ccc(C(=O)N[C@@H](CCC(=O)O)C(=O)O)cc3)cnc2n1 [Aminopterin]
CC50 (in vitro): 10 µM | SI RSV [CC50/EC50] [4]: SIIAV 111 SIRSV 143 conf. broad spectrum [79], [80] | SI IAV [CC50/EC50] (recIAV WSN-NanoLuc [5]): SIIAV 111 SIRSV 143 conf. broad spectrum [79], [80] | EC50 (recRSV A2-L19F-renilla): 0.05 µM | EC50 (recIAV WSN-NanoLuc [6]): 0.09 µM

CC(=O)OC[C@H]1O[C@@H]([S-])[C@H](OC(C)=O)[C@@H](OC(C)=O)[C@@H]1OC(C)=O.CCP(CC)CC.[Au+] [Auranofin]
CC50 (PrestoBlue cell viability) (BEAS-2B cells): tox^d

COc1cc2nc(N3CCCN(C)CC3)nc(NC3CCN(Cc4ccccc4)CC3)c2cc1OC [BIX 01294]
CC50 (in vitro): > 10 µM | EC50 RSV A2-L19FD489E-fireSMASh [4]: inactive^e | EC50 IAV WSN-nanoLuc (recIAV WSN-NanoLuc [5]): inactive^e

O=C1C(=Cc2ccccc2)C[C@@]2(O)[C@H]3Cc4ccc(O)c5c4[C@@]2(CCN3CC2CC2)[C@H]1O5 [BNTX-7]
CC50 (BEAS-2B cells): > 10 µM | SI RSV [CC50/EC50] [4]: SIRSV >4 | EC50 [4]: 2.5 µM | EC50 IAV WSN-nanoLuc (recIAV WSN-NanoLuc [5]): inactive^e | effect on IAV reporter strain (recIAV WSN-NanoLuc [5]): unaffected

Cc1c(-c2ccc(-c3ccccc3F)cc2)nc2ccc(F)cc2c1C(=O)O [Brequinar]
CC50 (in vitro): > 10 µM | SI RSV [CC50/EC50] [4]: SIIAV >3.8 SIRSV >6.3 conf. broad spectrum [81], [82] | SI IAV [CC50/EC50] (recIAV WSN-NanoLuc [5]): SIIAV >3.8 SIRSV >6.3 conf. broad spectrum [81], [82] | EC50 (recRSV A2-L19F-renilla): 1.8 µM | EC50 (recIAV WSN-NanoLuc [6]): 2.6 µM

CNc1ccc2oc(C[C@H]3O[C@@]4(CC[C@H]3C)O[C@H]([C@H](C)C(=O)c3ccc[nH]3)[C@H](C)C[C@H]4C)nc2c1C(=O)O [Calcimycin]
CC50 (PrestoBlue cell viability) (BEAS-2B cells): tox^d

CCCCCCCCCCCCCCCCCCOCC(COP(=O)([O-])OCC[N+](C)(C)C)OC (centres unmarked) [ET-18-OCH3]
CC50 (BEAS-2B cells): > 10 µM | EC50 RSV A2-L19FD489E-fireSMASh [4]: inactive^e | EC50 IAV WSN-nanoLuc (recIAV WSN-NanoLuc [5]): inactive^e

CC[C@H]1CN2CCc3cc(OC)c(OC)cc3[C@@H]2C[C@@H]1C[C@H]1NCCc2cc(OC)c(OC)cc21 [Emetine]
CC50 (PrestoBlue cell viability) (BEAS-2B cells): tox^d

COc1cccc2c1C(=O)c1c(O)c3c(c(O)c1C2=O)C[C@@](O)(C(=O)CO)C[C@@H]3O[C@H]1C[C@H](N)[C@@H](O)[C@H](C)O1 [Epirubicin]
inhibition at 5 µM (recIAV WSN-NanoLuc [3]): 75 ± 3.1%

COc1cc([C@@H]2c3cc4c(cc3[C@@H](O[C@@H]3O[C@@H]5CO[C@@H](C)O[C@H]5[C@H](O)[C@H]3O)[C@H]3COC(=O)[C@H]23)OCO4)cc(OC)c1O [Etoposide]
inhibition at 5 µM (recIAV WSN-NanoLuc [3]): 56 ± 5.6%

CC1=C(/C=C/C(C)=C/C=C/C(C)=C/C(=O)Nc2ccc(O)cc2)C(C)(C)CCC1 [Fenretinide]
CC50 (in vitro): > 10 µM | SI RSV [CC50/EC50] [4]: SIRSV >2.8 Dengue [62], HIV [61] | EC50 IAV WSN-nanoLuc (recIAV WSN-NanoLuc [5]): inactive^e | effect on IAV reporter strain (recIAV WSN-NanoLuc [5]): unaffected | EC50 (recRSV A2-L19F-renilla): 4.8 µM

Nc1ccn([C@@H]2O[C@H](CO)[C@@H](O)C2(F)F)c(=O)n1 [Gemcitabine]
CC50 (in vitro): > 10 µM | SI RSV [CC50/EC50] [4]: SIIAV >100 SIRSV >111 HIV, IAV [49], [50] | SI IAV [CC50/EC50] (recIAV WSN-NanoLuc [5]): SIIAV >100 SIRSV >111 HIV, IAV [49], [50] | EC50 (recRSV A2-L19F-renilla): 0.05 µM | EC50 (recIAV WSN-NanoLuc [6]): 0.1 µM

COC(=O)C[C@](O)(CCCC(C)(C)O)C(=O)O[C@@H]1C(OC)=C[C@]23CCCN2CCc2cc4c(cc2[C@H]13)OCO4 [Homoharringtonine]
inhibition at 5 µM (recIAV WSN-NanoLuc [3]): 90 ± 2.6%

CC(=O)[C@]1(O)Cc2c(O)c3c(c(O)c2[C@@H](O[C@H]2C[C@H](N)[C@H](O)[C@H](C)O2)C1)C(=O)c1ccccc1C3=O [Idarubicin]
CC50 (PrestoBlue cell viability) (BEAS-2B cells): tox^d | inhibition at 5 µM (recIAV WSN-NanoLuc [3]): 97 ± 1%

Oc1ccc(/C=C/c2ccc(/C=C/c3ccc(O)cc3)c(Br)c2)cc1 [K114]
CC50 (BEAS-2B cells): > 10 µM | EC50 RSV A2-L19FD489E-fireSMASh [4]: inactive^e | EC50 IAV WSN-nanoLuc (recIAV WSN-NanoLuc [5]): inactive^e

Nc1nc2c(c(=O)[nH]1)C[C@@H](CCc1ccc(C(=O)N[C@@H](CCC(=O)O)C(=O)O)cc1)CN2 [Lometrexol]
CC50 (PrestoBlue cell viability) (BEAS-2B cells): tox^d

CN(Cc1cnc2nc(N)nc(N)c2n1)c1ccc(C(=O)N[C@@H](CCC(=O)O)C(=O)O)cc1 [Methotrexate]
inhibition at 5 µM (recIAV WSN-NanoLuc [3]): 100 ± 0.6%

CCOC(=O)C1=C(C)NC(C)=C(C(=O)OC)C1c1cccc([N+](=O)[O-])c1 (centres unmarked) [Nitrendipine]
CC50 (in vitro): > 10 µM | EC50 RSV A2-L19FD489E-fireSMASh [4]: inactive^e | EC50 IAV WSN-nanoLuc (recIAV WSN-NanoLuc [5]): inactive^e

Cn1c(=O)c(-c2c(Cl)cccc2Cl)cc2cnc(Nc3ccc(N4CCOCC4)cc3)nc21 [PD173952]
CC50 (PrestoBlue cell viability) (BEAS-2B cells): tox^d

CCN(CC)CCOc1ccc(Nc2ncc3cc(-c4c(Cl)cccc4Cl)c(=O)n(C)c3n2)cc1 [PD-166285]
CC50 (PrestoBlue cell viability) (BEAS-2B cells): tox^d

Nc1nc2c(ncn2CCOCP(=O)(O)O)c(=O)[nH]1 [PMEG]
CC50 (BEAS-2B cells): 10 µM | SI RSV [CC50/EC50] [4]: SIIAV 50 SIRSV 100 HPV [67] | potency against RSV relative to IAV [4]: approximately 2 fold | EC50 [4]: 0.1 µM | SI IAV [CC50/EC50] (recIAV WSN-NanoLuc [5]): SIIAV 50 SIRSV 100 HPV [67] | EC50 (recIAV WSN-NanoLuc [5]): 0.2 µM

c1cnc2c(c1)ccc1cccnc12 [Phenanthroline]
CC50 (in vitro): 2.4 µM

Cc1nc2ccc(CN(C)c3ccc(C(=O)N[C@@H](CCC(=O)O)C(=O)O)s3)cc2c(=O)[nH]1 [Raltitrexed]
inhibition at 5 µM (recIAV WSN-NanoLuc [3]): 60 ± 6.5%

NC(=O)c1ncn([C@@H]2O[C@H](CO)[C@@H](O)[C@H]2O)n1 [Ribavirin]
CC50 (in vitro): > 10 µM | SI RSV [CC50/EC50] [4]: SIIAV >2.2 SIRSV >3.9 broad spectrum [84] | SI IAV [CC50/EC50] (recIAV WSN-NanoLuc [5]): SIIAV >2.2 SIRSV >3.9 broad spectrum [84] | EC50 (recRSV A2-L19F-renilla): 2.9 µM | EC50 (recIAV WSN-NanoLuc [6]): 4.5 µM

CN(CCOc1ccc(CC2SC(=O)NC2=O)cc1)c1ccccn1 (centres unmarked) [Rosiglitazone]
inhibition at 5 µM (recIAV WSN-NanoLuc [3]): 35 ± 5%

C[n+]1cc2c3c(ccc2c2ccc4cc5c(cc4c21)OCO5)OCO3 [Sanguinarine]
CC50 (PrestoBlue cell viability) (BEAS-2B cells): tox^d

O=[N+]([O-])c1ccc2c(c1)S(=O)(=O)C=C2 [Stattic]
CC50 (BEAS-2B cells): 10 µM | EC50 [4]: 5.9 µM | SI IAV [CC50/EC50] (recIAV WSN-NanoLuc [5]): SIIAV 3 | EC50 (recIAV WSN-NanoLuc [5]): 3.3 µM

CCN(CC)CCNC(=O)c1c(C)[nH]c(/C=C2\C(=O)Nc3ccc(F)cc32)c1C [Sunitinib]
CC50 (PrestoBlue cell viability) (BEAS-2B cells): tox^d

Cn1nnc2c(C(N)=O)ncn2c1=O [Temozolomide]
inhibition at 5 µM (recIAV WSN-NanoLuc [3]): 55 ± 3.2%

Nc1nc(N)c2nc(-c3ccccc3)c(N)nc2n1 [Triamterene]
CC50 (in vitro): > 10 µM | EC50 RSV A2-L19FD489E-fireSMASh [4]: inactive^e | EC50 IAV WSN-nanoLuc (recIAV WSN-NanoLuc [5]): inactive^e

CC(C)[C@]12O[C@H]1[C@@H]1O[C@]13[C@]1(O[C@H]1C[C@H]1C4=C(CC[C@@]13C)C(=O)OC4)[C@@H]2O [Triptolide]
CC50 (in vitro): 0.3 µM | inhibition at 5 µM (recIAV WSN-NanoLuc [3]): 103 ± 1.2% | SI (CC50/EC50) value at dose-response testing (recIAV WSN-NanoLuc [5]): below two | EC50 (recRSV A2-L19F-renilla): 0.6 µM | EC50 (recIAV WSN-NanoLuc [6]): 0.15 µM

CC[C@]1(O)C[C@H]2CN(CCc3c([nH]c4ccccc34)[C@@](C(=O)OC)(c3cc4c(cc3OC)N(C=O)[C@H]3[C@@](O)(C(=O)OC)[C@H](OC(C)=O)[C@]5(CC)C=CCN6CC[C@]43[C@@H]65)C2)C1 [Vincristine]
inhibition at 5 µM (recIAV WSN-NanoLuc [3]): 50 ± 2.9%

CC(=O)N[C@H]1[C@H]([C@H](O)[C@H](O)CO)OC(C(=O)O)=C[C@@H]1N=C(N)N [Zanamivir]
CC50 (in vitro): > 10 µM | EC50 RSV A2-L19FD489E-fireSMASh [4]: Inactive | SI IAV [CC50/EC50] (recIAV WSN-NanoLuc [5]): SIIAV >500 IAV inhibitor [83] | EC50 (recIAV WSN-NanoLuc [6]): 0.02 µM
